Measured values reported in US4810699A, “Substituted 1,3,4,9-tetrahydropyrano[3,4,-b]indole-1-acetic acids, pharmaceutical compositions containing them, and methods for treating inflammatory conditions and for analgesic purposes using them” (American Home Products Corporation, priority 1987, dated 1989).

Assays:
Adjuvant Edema = assay: Preventative Adjuvant Edema; assay type: in vivo, Male Sprague Dawley rats; conditions: rat; for ED50: po, days 0, 1 and 2; for Preventative Adjuvant Edema, percent inhibition: p.o.
Description: This test is a primary screen for anti-inflammatory drugs.
Male Sprague Dawley rats (180-200 g) are used. The animals have free access to water but food is withdrawn 18 hours before testing.
Drug Preparations and Administration:
Freund's complete adjuvant is prepared by suspending 5 mg of killed and dried Mycobacterium butyricum (Difco) in 1 mL mineral oil. The test compound are dissolved, or suspended in 0.5% Tween 80 in distilled water according to their solubility. For primary screening all drugs are administered by gastric lavage at the arbitrary dosage of 25 mg/kg, p.o. in a volume of 0.5 mL/100 g body weight to groups of 10 animals.
The method is essentially that described by Wax et al, J. Pharmacol. Exp. Ther., 192, 166-171 (1975). Groups of rats are injected intradermally in the left hind paw with 0.1 mL of Freund's complete adjuvant. The test compound or vehicle is administered immediately before the adjuvant, 24 hours and 48 hours after the adjuvant (days 0, 1 and 2). The injected hind paw volume is measured before the injection of adjuvant and 24 hrs. after the last drug administration (day 3) by means of a plethysmometer (Buxco Electronics Inc.). The difference between the hind paw volume on day 0 and day 3 represents the edema volume. Etodolac (25 mg/kg, p.o.) is included as a positive control.
The mean edema volume (expressed as mL±SEM) is calculated for each group and the percentage protection conferred by the drug is calculated: [formula] where c is the mean edema volume for the vehicle-treated (0.5% Tween 80 in distilled water) controls and t is the mean edema volume for the drug treated group.

[1] = tested on: Phenylbenzoquinone-induced Writhing; assay: Drug Effects on Phenylbenzoquinone-induced Writhing in Mice; assay type: in vivo, Male Swiss albino mice; conditions: mouse, p.o., 60 min before PBQ i.p.; for Phenylquinone Writhing in Mice, percent inhibition: dose 10 mg/kg; for ED50: po, read-out: Phenylquinone Writhing in Mice ED50
Description: A further test used to determine the utility of the compounds of the present invention is designated: Drug Effects on Phenylbenzoquinone-induced Writhing in Mice
The objective of this test is to determine the ability of test drugs to inhibit the nociceptive (pain) response of mice injected with a chemical irritant. This test is a primary screen for both peripheral and centrally acting analgesic drugs.
Male Swiss albino mice (15-25 g). The animals are fasted for 18 hours prior to use but have free access to water.
Drug Preparation and Administration:
Drugs are dissolved or suspended according to their solubility in 0.5% Tween 80 in distilled water. They are administered by gastric gavage in a volume of 5 mL/kg. For primary screening all drugs are administered at the arbitrary dosage of 25 mg/kg, p.o. to a group of 10 mice.
A modification of the method of Siegmund et al, Proc. Soc. Exp. Biol. Med., 95, 729-731 (1957) is used. Groups of 5 mice are dosed with the test compound or vehicle control. Sixty minutes later the animals are injected i.p. with 0.3 mL/20 g body weight of a 0.02% solution of phenylbenzoquinone (PBQ; 2-phenyl-1,4-benzoquinone) and placed in individual observation boxes. The number of writhing or abdominal squirming movements made by each mouse during the following 15 min. period is counted. The experiment is repeated with another group of 5 mice and the mean number of writhes per mouse for a group of 10 mice is calculated.
Drug treated and vehicle-treated control groups are compared and the percentage protection conferred by the drug is calculated: [formula] where c=mean number of writhes in the control group
t=mean number of writhes in the test drug group

| Structure (SMILES) | Phenylquinone Writhing in Mice, percent inhibition [1] [%] | Preventative Adjuvant Edema, percent inhibition (Adjuvant Edema; dose 25 mg/kg) [%] | further results |
| --- | --- | --- | --- |
| CCC1(CC(=O)O)OCCc2c1[nH]c1c(OCC(F)(F)F)ccc(C)c21 (stereo not drawn) [Example 1, 1-Ethyl-1,3,4,9-tetrahydro-5-methyl-8-(2,2,2-trifluoroethoxy)pyrano[3,4-b]indole-1-acetic Acid] | 34 |  | ED50 (Adjuvant Edema): 16.4 mg/kg |
| CCC1(CC(=O)O)OCCc2c1[nH]c1c(OCC(F)(F)F)c(Cl)ccc21 (stereo not drawn) [Example 2, 7-Chloro-1-ethyl-1,3,4,9-tetrahydro-8-(2,2,2-trifluoroethoxy)pyrano[3,4-b]indole-1-acetic Acid] |  |  | Preventative Adjuvant Edema, percent inhibition (Adjuvant Edema; dose 3 mg/kg): 50%; ED50 [1]: 77 mg/kg |
| CCC1(CC(=O)O)OCCc2c1[nH]c1c(OCC(F)(F)F)ccc(F)c21 (stereo not drawn) [Example 3, 1-ethyl-5-fluoro-1,3,4,9-tetrahydro-8-(2,2,2-trifluoroethoxy)-pyrano[3,4-b]indole-1-acetic acid] | 18 | 70 |  |
| CCC1(CC(=O)O)OCCc2c1[nH]c1c(OCC(F)(F)F)c(F)ccc21 (stereo not drawn) [Example 4, 7-fluoro-1-ethyl-1,3,4,9-tetrahydro-8-(2,2,2-trifluoroethoxy)-pyrano[3,4-b]indole-1-acetic acid] | 0 |  | Preventative Adjuvant Edema, percent inhibition (Adjuvant Edema; dose 10 mg/kg): 83% |
| CCC1(CC(=O)O)OCCc2c1[nH]c1c(OC(C)C(F)(F)F)c(Cl)ccc21 (stereo not drawn) [Example 5, 7-chloro-1-ethyl-1,3,4,9-tetrahydro-8-(1-methyl-2,2,2-trifluoroethoxy)-pyrano[3,4-b]indole-1-acetic acid] | 31 | 41 |  |
| CCC1(CC(=O)O)OCCc2c1[nH]c1c(OCC(F)(F)F)cccc21 (stereo not drawn) [Example 6, 1-Ethyl-1,3,4,9-tetrahydro-8-(2,2,2-trifluoroethoxy)pyrano[3,4-b]indole-1-acetic Acid] |  |  | ED50 (Adjuvant Edema): 4.3 mg/kg; ED50 [1]: > 200 mg/kg |
| C=CCOc1cccc2c3c([nH]c12)C(CC)(CC(=O)O)OCC3 (stereo not drawn) [Example 7, 1-ethyl-1,3,4,9-tetrahydro-8-[(2-propenyl)oxy]-pyrano[3,4-b]indole-1-aceticacid] | 18 | 41 |  |
| C#CCOc1cccc2c3c([nH]c12)C(CC)(CC(=O)O)OCC3 (stereo not drawn) [Example 8, 1-Ethyl-1,3,4,9-tetrahydro-8-[(2-propynyl)oxy]-pyrano[3,4-b]indole-1-aceticAcid] |  | 34 |  |
